Source: patent publication US20250243180A1, “TARGETED PROTEIN DEGRADATION” (Monte Rosa Therapeutics AG, priority 2023, published 2025)
Read-outs that look alike come from different tables or passages of the source.

Tests used:
CRBN-DDB1 = CRBN-DDB1 (Homo sapiens (Human), UniProt Q96SW2); experiment: Compound binding to CRBN by HTRF assay
Outline: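 Ki calculated via Cheng-Prusoff from geometric-mean EC50 values, after normalizing the HTRF ratio to lenalidomide (active) and DMSO (neutral) controls. Compounds (11 points, 1:3 steps) incubated 30 min at ambient temperature with CRBN-DDB1 2.5 nM, anti-His Tb cryptate and Cy5-thalidomide tracer 100 nM.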

NEK7 = NEK7 (Homo sapiens (Human), UniProt Q8TDX7+Q96SW2); experiment: NEK7 NanoBiT degradation assay in Cal51 NEK7 NanoBiT cell line; assay type: cell-based; conditions: Cal51 NEK7 NanoBiT cells, 24 hours; for Dmax: CAL-51
Sequence of NEK7 (Q8TDX7 whole entry): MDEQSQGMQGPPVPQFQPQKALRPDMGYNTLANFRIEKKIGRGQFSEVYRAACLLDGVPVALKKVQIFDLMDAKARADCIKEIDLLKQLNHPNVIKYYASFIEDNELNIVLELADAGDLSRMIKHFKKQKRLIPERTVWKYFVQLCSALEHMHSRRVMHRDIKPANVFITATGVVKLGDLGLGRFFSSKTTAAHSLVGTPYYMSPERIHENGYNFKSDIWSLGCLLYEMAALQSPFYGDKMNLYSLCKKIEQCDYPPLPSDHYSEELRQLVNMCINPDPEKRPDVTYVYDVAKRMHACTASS
Sequence of NEK7 (Q96SW2 whole entry): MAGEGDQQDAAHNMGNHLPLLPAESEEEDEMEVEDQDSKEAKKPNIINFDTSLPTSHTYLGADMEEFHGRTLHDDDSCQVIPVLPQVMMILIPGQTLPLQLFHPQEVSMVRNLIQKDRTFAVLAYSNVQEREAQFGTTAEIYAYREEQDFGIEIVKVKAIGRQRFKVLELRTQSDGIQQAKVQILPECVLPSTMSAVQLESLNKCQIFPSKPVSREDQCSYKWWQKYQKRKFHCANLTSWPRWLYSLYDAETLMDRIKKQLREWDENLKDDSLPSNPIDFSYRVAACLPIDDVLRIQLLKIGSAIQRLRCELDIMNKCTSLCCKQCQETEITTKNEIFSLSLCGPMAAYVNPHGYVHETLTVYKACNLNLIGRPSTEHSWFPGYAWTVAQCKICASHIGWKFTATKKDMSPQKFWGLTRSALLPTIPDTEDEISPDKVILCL
Sequence of NEK7 (Q16531 2-1140 partner): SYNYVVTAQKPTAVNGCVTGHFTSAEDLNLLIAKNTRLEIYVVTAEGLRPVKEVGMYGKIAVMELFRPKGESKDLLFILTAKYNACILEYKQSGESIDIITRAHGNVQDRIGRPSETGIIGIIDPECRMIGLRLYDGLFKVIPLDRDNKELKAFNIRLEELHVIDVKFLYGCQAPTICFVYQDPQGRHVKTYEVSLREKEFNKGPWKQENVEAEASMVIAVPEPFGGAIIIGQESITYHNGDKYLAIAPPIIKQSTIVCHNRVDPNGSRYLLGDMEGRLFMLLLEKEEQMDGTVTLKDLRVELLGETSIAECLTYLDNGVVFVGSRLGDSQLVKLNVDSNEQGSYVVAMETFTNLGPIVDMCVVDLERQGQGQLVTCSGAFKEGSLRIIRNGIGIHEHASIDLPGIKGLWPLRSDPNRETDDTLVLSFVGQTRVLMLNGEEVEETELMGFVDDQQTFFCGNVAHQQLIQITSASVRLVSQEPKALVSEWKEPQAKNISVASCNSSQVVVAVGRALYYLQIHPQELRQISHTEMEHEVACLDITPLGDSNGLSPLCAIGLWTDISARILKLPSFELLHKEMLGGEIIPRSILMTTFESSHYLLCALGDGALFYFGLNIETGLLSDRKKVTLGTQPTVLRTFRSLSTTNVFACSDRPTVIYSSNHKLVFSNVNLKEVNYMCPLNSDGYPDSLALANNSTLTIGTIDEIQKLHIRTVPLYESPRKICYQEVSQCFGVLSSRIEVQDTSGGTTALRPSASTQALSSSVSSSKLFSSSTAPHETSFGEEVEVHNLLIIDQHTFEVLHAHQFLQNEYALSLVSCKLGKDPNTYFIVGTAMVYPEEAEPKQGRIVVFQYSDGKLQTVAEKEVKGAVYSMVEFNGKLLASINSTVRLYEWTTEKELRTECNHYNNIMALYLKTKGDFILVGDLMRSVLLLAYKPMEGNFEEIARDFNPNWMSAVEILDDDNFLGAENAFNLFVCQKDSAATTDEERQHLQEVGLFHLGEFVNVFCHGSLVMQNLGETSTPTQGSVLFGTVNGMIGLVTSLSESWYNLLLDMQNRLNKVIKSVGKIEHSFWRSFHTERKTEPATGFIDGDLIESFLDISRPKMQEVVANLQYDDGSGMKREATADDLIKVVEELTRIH
Outline: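 EC50 comes from a 4-parameter fit of control-normalized luminescence. The luminescence reports HiBiT-NEK7 (endogenous knock-in) complemented by stably expressed LgBiT in Cal51 cells after 24 h compound exposure at 37 °C. Final concentrations ran 1 μM to 0.05 nM, with Endurazine substrate present in the medium throughout.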

IL-1β release = IL-1β release in human monocyte-derived macrophages, LPS/nigericin stimulation; assay type: cell-based; conditions: Macrophage, 24 h pre-treatment, LPS 3 h then 10 μM nigericin 1 h, read-out: IL-1b IC50 (NIG)
Experimental: (§1) Human monocytes were enriched and isolated from a buffy coat of healthy donor whole blood with a RosetteSep™ Human Monocyte Enrichment Cocktail (Cat.No. 15068, StemCell) and Ficoll-Plaque PLUS (Cat.No. H8889, Sigma). Monocytes were differentiated into macrophages by treatment with 100 ng/mL M-CSF for 6 days at 37° C., 5% CO2. Differentiated macrophages were seeded overnight (50,000 cells/well) in 100 µL of medium in a 96-well, white-bottom plate at 37° C., 5% CO2. Cells were treated with a concentration range of MGD for 24 hours prior to stimulation with nigericin. Macrophages were primed with […] LPS for 3 h followed by 1 h stimulation with 10 μM nigericin. Media of stimulated macrophages were collected and assayed for caspase 1 activity directly (Promega G9951), according to manufacturer's instructions. For IL-1β release assay, media of stimulated macrophages were collected and stored at −20° C., then thawed at 4° C. before assaying for IL-1β activity (Promega W6011), according to manufacturer's instructions.

Caspase-1 activity = Caspase-1 activity in human monocyte-derived macrophages, LPS/nigericin stimulation; assay type: cell-based; conditions: Macrophage, 24 h pre-treatment, LPS 3 h then 10 μM nigericin 1 h, read-out: Caspase-1 IC50 (NIG)
Experimental: as §1

[1] = NEK7 degradation, read-out: NanoBiT Dmax
[2] = NEK7 degradation, read-out: NanoBiT DC50

Sequence of CRBN-DDB1 (Q96SW2 whole entry): as the sequence (Q96SW2 whole entry) above
Sequence of CRBN-DDB1 (Q16531 whole entry partner): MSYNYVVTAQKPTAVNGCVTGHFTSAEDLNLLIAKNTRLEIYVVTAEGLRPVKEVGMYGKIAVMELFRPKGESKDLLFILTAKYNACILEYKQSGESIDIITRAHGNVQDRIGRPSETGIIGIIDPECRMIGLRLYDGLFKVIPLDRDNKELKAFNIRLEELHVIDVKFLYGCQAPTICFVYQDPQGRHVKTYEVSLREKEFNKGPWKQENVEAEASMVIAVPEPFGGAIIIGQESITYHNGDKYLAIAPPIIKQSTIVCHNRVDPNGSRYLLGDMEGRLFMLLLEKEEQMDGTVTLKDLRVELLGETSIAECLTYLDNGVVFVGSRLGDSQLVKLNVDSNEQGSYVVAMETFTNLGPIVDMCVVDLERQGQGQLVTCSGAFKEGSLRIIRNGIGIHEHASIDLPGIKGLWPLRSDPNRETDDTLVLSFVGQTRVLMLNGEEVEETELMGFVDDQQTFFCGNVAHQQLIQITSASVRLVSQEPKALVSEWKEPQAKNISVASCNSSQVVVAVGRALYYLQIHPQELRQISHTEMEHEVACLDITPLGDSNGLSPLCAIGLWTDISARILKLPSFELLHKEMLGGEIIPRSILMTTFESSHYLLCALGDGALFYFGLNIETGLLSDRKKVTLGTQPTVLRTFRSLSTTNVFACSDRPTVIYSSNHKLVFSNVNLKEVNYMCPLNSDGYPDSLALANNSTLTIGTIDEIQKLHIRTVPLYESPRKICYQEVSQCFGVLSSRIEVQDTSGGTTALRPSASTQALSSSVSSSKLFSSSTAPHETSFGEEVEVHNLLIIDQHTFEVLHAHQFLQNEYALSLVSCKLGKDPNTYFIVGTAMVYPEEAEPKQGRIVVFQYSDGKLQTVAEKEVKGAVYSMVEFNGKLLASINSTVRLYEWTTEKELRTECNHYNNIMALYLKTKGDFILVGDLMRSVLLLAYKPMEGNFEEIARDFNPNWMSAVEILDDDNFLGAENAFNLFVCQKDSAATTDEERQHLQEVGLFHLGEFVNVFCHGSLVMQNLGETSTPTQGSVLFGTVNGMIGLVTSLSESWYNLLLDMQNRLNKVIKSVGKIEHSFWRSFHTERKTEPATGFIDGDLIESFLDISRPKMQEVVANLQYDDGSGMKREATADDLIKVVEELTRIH

SMILES | EC50 (CRBN-DDB1) | EC50 (CRBN-DDB1; HTRF class, Cereblon binding) | Dmax (NEK7; read-out: NEK7 NanoBiT Dmax) | Dmax (NEK7; [1]) | DC50 (NEK7; read-out: NEK7 NanoBiT DC50) | DC50 (NEK7; [2]) | IC50 (IL-1β release) | IC50 (Caspase-1 activity)
CC(C)(C(=O)NCc1cc(Cl)c(C2CCC(=O)NC2=O)c(Cl)c1)c1ccc2ocnc2c1 (stereo not shown) [Compound 17] | 20 nM | ≤ 100 nM | 98% | > 75% | 0.1 nM | ≤ 100 nM | 0.03 nM | 
CC(C)(C(=O)NCc1cc(Cl)c(C2CCC(=O)NC2=O)c(Cl)c1)c1ncccn1 (stereo not shown) [Compound 34] | 140 nM | 100 to 1000 nM | 78% | > 75% | 28 nM | ≤ 100 nM | 7.36 nM | 7.25 nM
CC(C)(C(=O)NCc1cc(Cl)c(C2CCC(=O)NC2=O)c(Cl)c1)c1ccccc1 (stereo not shown) [Compound 37, N-(3,5-dichloro-4-(2,6-dioxopiperidin-3-yl)benzyl)-2-methyl-2-phenylpropanamide] | 30 nM | ≤ 100 nM | 97% | > 75% | 1 nM | ≤ 100 nM | 0.31 nM | 0.14 nM
CC(C)(C(=O)NCc1cc(Cl)c(C2CCC(=O)NC2=O)c(Cl)c1)c1ccc(S(N)(=O)=O)cc1 (stereo not shown) [Compound 76] | 70 nM | ≤ 100 nM | 97% | > 75% | 2 nM | ≤ 100 nM | 0.83 nM | 0.49 nM
CC(C)(C(=O)NCc1cc(Cl)c(C2CCC(=O)NC2=O)c(Cl)c1)c1ccnc(F)c1 (stereo not shown) [Compound 93] | 70 nM | ≤ 100 nM | 92% | > 75% | 4 nM | ≤ 100 nM | 0.9 nM | 0.45 nM
CC(C)(C(=O)NCc1cc(Cl)c(C2CCC(=O)NC2=O)c(Cl)c1)c1c(F)cccc1F (stereo not shown) [Compound 94] | 70 nM | ≤ 100 nM | 98% | > 75% | 1 nM | ≤ 100 nM | 0.1 nM | 
CC(C)(C(=O)NCc1cc(F)c(C2CCC(=O)NC2=O)c(Cl)c1)c1cc(F)ccn1 (stereo not shown) [Compound 260, N-(3-chloro-4-(2,6-dioxopiperidin-3-yl)-5-fluorobenzyl)-2-(4-fluoropyridin-2-yl)-2-methylpropanamide] | 110 nM | 100 to 1000 nM | 47% | ≤ 50% | 480 nM | 100 to 1000 nM |  | 
COc1ccc(C(C)(C)C(=O)NCc2cc(F)c(C3CCC(=O)NC3=O)c(Cl)c2)nc1 (stereo not shown) [Compound 261] | 90 nM | ≤ 100 nM | 87% | > 75% | 12 nM | ≤ 100 nM |  | 
COc1ccc(C(C)(C)C(=O)NCc2cc(F)c(C3CCC(=O)NC3=O)c(Cl)c2)nn1 (stereo not shown) [Compound 262] | 80 nM | ≤ 100 nM | 88% | > 75% | 12 nM | ≤ 100 nM |  | 
CC(F)(F)c1cnc(C(C)(C)C(=O)NCc2cc(Cl)c(C3CCC(=O)NC3=O)c(Cl)c2)cn1 (stereo not shown) [Compound 263] | 100 nM | 100 to 1000 nM | 90% | > 75% | 7 nM | ≤ 100 nM |  | 
CC(C)(C(=O)NCc1cc(F)c(C2CCC(=O)NC2=O)c(Cl)c1)c1cnc(OC(F)(F)F)cn1 (stereo not shown) [Compound 264] | 130 nM | 100 to 1000 nM | 68% | 50 to 75% | 100 nM | ≤ 100 nM |  | 

Continued, values first:

EC50 (CRBN-DDB1) | EC50 (CRBN-DDB1; HTRF class, Cereblon binding) | Dmax (NEK7; read-out: NEK7 NanoBiT Dmax) | Dmax (NEK7; [1]) | DC50 (NEK7; read-out: NEK7 NanoBiT DC50) | DC50 (NEK7; [2]) | IC50 (IL-1β release) | IC50 (Caspase-1 activity) | SMILES
90 nM | ≤ 100 nM | 56% | 50 to 75% | 474 nM | 100 to 1000 nM |  |  | CC(C)(C(=O)NCc1cc(Cl)c(C2CCC(=O)NC2=O)c(Cl)c1)C1CCCO1 (stereo not shown) [Compound 265, N-(3,5-dichloro-4-(2,6-dioxopiperidin-3-yl)benzyl)-2-methyl-2-(tetrahydrofuran-2-yl)propanamide]
120 nM | 100 to 1000 nM | 82% | > 75% | 15 nM | ≤ 100 nM |  |  | CC(C)(C(=O)NCc1cc(Cl)c(C2CCC(=O)NC2=O)c(Cl)c1)c1cn(C(C)(F)F)c(=O)cn1 (stereo not shown) [Compound 266, N-(3,5-dichloro-4-(2,6-dioxopiperidin-3-yl)benzyl)-2-(4-(1,1-difluoroethyl)-5-oxo-4,5-dihydropyrazin-2-yl)-2-methylpropanamide]
110 nM | 100 to 1000 nM | 94% | > 75% | 3 nM | ≤ 100 nM |  |  | CC(C)(C(=O)NCc1cc(F)c(C2CCC(=O)NC2=O)c(Cl)c1)c1ccc(OC(F)F)nc1 (stereo not shown) [Compound 267]
120 nM | 100 to 1000 nM | 88% | > 75% | 11 nM | ≤ 100 nM |  |  | COc1conc1C(C)(C)C(=O)NCc1cc(F)c(C2CCC(=O)NC2=O)c(Cl)c1 (stereo not shown) [Compound 268]
100 nM | 100 to 1000 nM | 95% | > 75% | 1 nM | ≤ 100 nM |  |  | CC(C)(C(=O)NCc1cc(F)c(C2CCC(=O)NC2=O)c(Cl)c1)c1ccc(OCC(F)F)nc1 (stereo not shown) [Compound 269, N-(3-chloro-4-(2,6-dioxopiperidin-3-yl)-5-fluorobenzyl)-2-(6-(2,2-difluoroethoxy)pyridin-3-yl)-2-methylpropanamide]
190 nM | 100 to 1000 nM | 72% | 50 to 75% | 73 nM | ≤ 100 nM |  |  | Cc1cnc(C(C)(C)C(=O)NCc2cc(F)c(C3CCC(=O)NC3=O)c(Cl)c2)o1 (stereo not shown) [Compound 270, N-(3-chloro-4-(2,6-dioxopiperidin-3-yl)-5-fluorobenzyl)-2-methyl-2-(5-methyloxazol-2-yl)propanamide]
520 nM | 100 to 1000 nM | 68% | 50 to 75% | 213 nM | 100 to 1000 nM |  |  | Cc1cnc(C(C)(C)C(=O)NCc2cc(C)c(C3CCC(=O)NC3=O)c(Cl)c2)nc1 (stereo not shown) [Compound 271]
230 nM | 100 to 1000 nM | 57% | 50 to 75% | 312 nM | 100 to 1000 nM |  |  | CC(C)(C(=O)NCc1cc(F)c(C2CCC(=O)NC2=O)c(Cl)c1)c1ccc(OC(F)(F)F)nn1 (stereo not shown) [Compound 272]
210 nM | 100 to 1000 nM | 61% | 50 to 75% | 190 nM | 100 to 1000 nM |  |  | Cc1ccc(C(C)(C)C(=O)NCc2cc(F)c(C3CCC(=O)NC3=O)c(Cl)c2)nn1 (stereo not shown) [Compound 275]
190 nM | 100 to 1000 nM | 79% | > 75% | 33 nM | ≤ 100 nM |  |  | CC(C)(C(=O)NCc1cc(F)c(C2CCC(=O)NC2=O)c(Cl)c1)c1ccc(OC(F)F)nn1 (stereo not shown) [Compound 276]
180 nM | 100 to 1000 nM | 61% | 50 to 75% | 155 nM | 100 to 1000 nM |  |  | CC(F)(F)c1ccc(C(C)(C)C(=O)NCc2cc(F)c(C3CCC(=O)NC3=O)c(Cl)c2)nn1 (stereo not shown) [Compound 277]
190 nM | 100 to 1000 nM | 71% | 50 to 75% | 76 nM | ≤ 100 nM |  |  | CC(C)(C(=O)NCc1cc(F)c(C2CCC(=O)NC2=O)c(Cl)c1)c1nocc1C(F)(F)F (stereo not shown) [Compound 278]
350 nM | 100 to 1000 nM | 54% | 50 to 75% | 672 nM | 100 to 1000 nM |  |  | Cc1conc1C(C)(C)C(=O)NCc1cc(F)c(C2CCC(=O)NC2=O)c(Cl)c1 (stereo not shown) [Compound 279]
290 nM | 100 to 1000 nM | 60% | 50 to 75% | 143 nM | 100 to 1000 nM |  |  | CC(C)(C(=O)NCc1cc(F)c(C2CCC(=O)NC2=O)c(Cl)c1)c1ccc(C(F)F)nn1 (stereo not shown) [Compound 280]
260 nM | 100 to 1000 nM | 67% | 50 to 75% | 179 nM | 100 to 1000 nM |  |  | Cc1ncc(C(C)(C)C(=O)NCc2cc(F)c(C3CCC(=O)NC3=O)c(Cl)c2)o1 (stereo not shown) [Compound 281]
110 nM | 100 to 1000 nM | 78% | > 75% | 26 nM | ≤ 100 nM |  |  | Cc1ncc(C(C)(C)C(=O)NCc2cc(Cl)c(C3CCC(=O)NC3=O)c(Cl)c2)o1 (stereo not shown) [Compound 282]
